Drawing on patent publication US20260327242A1, “Platform and Scaffold for FAP Targeting Agents” (Erasmus University Medical Center Rotterdam, priority 2022, published 2026), this text covers IC50 for 13 molecules.

By IC50 is commonly meant the concentration that gives 50% inhibition. Low values mean higher potency, high ones lower potency.

One test has as its target T1, mouse FAP (mFAP) (Mus musculus, UniProt P97321).
T1 sequence (P97321 26-761 limits assumed): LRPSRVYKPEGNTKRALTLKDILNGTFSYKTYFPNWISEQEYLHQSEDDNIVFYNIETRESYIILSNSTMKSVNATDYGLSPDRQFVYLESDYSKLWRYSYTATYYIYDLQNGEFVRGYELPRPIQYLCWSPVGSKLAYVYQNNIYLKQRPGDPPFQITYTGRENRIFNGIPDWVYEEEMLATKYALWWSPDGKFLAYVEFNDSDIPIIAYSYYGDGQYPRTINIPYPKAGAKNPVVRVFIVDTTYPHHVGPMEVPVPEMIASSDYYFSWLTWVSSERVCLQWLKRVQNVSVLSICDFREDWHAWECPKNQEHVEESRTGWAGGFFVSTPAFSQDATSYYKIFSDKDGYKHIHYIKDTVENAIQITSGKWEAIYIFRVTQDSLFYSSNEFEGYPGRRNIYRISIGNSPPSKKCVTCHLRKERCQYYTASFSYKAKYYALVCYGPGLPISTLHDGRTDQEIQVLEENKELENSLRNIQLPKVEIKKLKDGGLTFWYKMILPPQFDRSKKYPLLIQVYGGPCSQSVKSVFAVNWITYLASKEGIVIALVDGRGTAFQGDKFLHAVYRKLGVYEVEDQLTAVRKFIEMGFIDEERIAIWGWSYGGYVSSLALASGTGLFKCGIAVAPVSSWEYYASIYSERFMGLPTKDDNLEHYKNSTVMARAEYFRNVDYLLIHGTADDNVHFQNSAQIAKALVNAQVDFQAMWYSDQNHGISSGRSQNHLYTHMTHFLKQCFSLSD
Put plainly: In vitro inhibition assay on mouse FAP (Z-GP-AMC substrate). The class given is biochemical. The conditions noted are these: 20 μM Z-GP-AMC, 20 nM FAP, pH 7.4, room temperature. How it is done:
(§1) Enzymatic activity of human FAP (hFAP) and mouse FAP (mFAP) on the Z-GP-AMC substrate was measured at room temperature on a Hidex microplate reader by monitoring the fluorescence at an excitation wavelength of 360 nm and an emission wavelength of 465 nm. The reaction mixture contained 20 μM substrate, 20 nM FAP, assay buffer (50 mM Tris, 100 mM NaCl, 1 mM EDTA, pH 7.4) and tested compound (serial dilution from 10-6 to 10^−12) in a total volume of 50 μL.
Results with FAPI-46 obtained in the same assay is included for comparison.

A further test has as its target T2, human FAP (hFAP) (Homo sapiens, UniProt Q12884).
T2 sequence (Q12884 26-760 limits assumed): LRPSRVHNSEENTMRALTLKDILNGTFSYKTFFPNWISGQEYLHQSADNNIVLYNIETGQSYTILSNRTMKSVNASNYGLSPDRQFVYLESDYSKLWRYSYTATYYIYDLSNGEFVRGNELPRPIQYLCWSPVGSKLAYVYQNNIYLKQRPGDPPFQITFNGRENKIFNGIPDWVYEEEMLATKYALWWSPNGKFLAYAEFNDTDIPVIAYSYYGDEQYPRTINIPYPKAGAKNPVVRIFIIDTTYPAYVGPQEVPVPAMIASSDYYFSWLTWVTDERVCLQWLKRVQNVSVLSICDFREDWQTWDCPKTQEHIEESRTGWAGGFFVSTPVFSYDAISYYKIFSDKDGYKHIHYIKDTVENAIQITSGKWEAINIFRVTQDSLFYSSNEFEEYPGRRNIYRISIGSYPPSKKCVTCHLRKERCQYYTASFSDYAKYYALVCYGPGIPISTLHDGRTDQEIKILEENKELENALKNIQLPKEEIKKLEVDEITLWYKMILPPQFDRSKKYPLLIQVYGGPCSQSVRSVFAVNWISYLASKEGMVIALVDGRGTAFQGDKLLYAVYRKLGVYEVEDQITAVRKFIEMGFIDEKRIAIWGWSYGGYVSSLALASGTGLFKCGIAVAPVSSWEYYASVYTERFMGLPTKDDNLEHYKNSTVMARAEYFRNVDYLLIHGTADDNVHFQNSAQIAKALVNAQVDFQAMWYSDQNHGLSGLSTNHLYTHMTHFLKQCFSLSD
Put plainly: In vitro inhibition assay on human FAP (Z-GP-AMC substrate). The test is classed as biochemical. The conditions noted are these: 20 μM Z-GP-AMC, 20 nM FAP, pH 7.4, room temperature. On the procedure:
as §1

With `CN1/C(=C/C=C/C=C/C2=[N+](CCCCCC(=O)NCCCOc3cccc4c(C(=O)NCC(=O)N5CC(F)(F)C[C@H]5C#N)ccnc34)c3ccc(S(=O)(=O)[O-])cc3C2(C)C)C(C)(C)c2cc(S(=O)(=O)O)ccc21` [eFAP-7, 1-(6-((3-((4-((2-((S)-2-Cyano-4,4-difluoropyrrolidin-1-yl)-2-oxoethyl)carbamoyl)quinolin-8-yl)oxy)propyl)amino)-6-oxohexyl)-3,3-dimethyl-5-sulfo-2-((1E,3E)-5-((E)-1,3,3-trimethyl-5-sulfoindolin-2-ylidene)penta-1,3-dien-1-yl)-3H-indol-1-ium], it took 2.5 ± 0.8 nM to reach half-maximal inhibition at mouse FAP (mFAP) (IC50).

For `N#C[C@@H]1CC(F)(F)CN1C(=O)CNC(=O)c1ccnc2c(OCCCNC(=O)CCC(C(=O)O)N3CCN(CC(=O)O)CCN(CC(=O)O)CCN(CC(=O)O)CC3)cccc12` (stereo partly drawn) [eFAP-8, 2,2′,2″-(10-(1-Carboxy-4-((3-((4-((2-((S)-2-cyano-4,4-difluoropyrrolidin-1-yl)-2-oxoethyl)carbamoyl)quinolin-8-yl)oxy)propyl)amino)-4-oxobutyl)-1,4,7,10-tetraazacyclododecane-1,4,7-triyl)triacetic acid], the results for the IC50 against mouse FAP (mFAP) and against human FAP (hFAP) were 1.1 ± 0.4 nM and 1.5 ± 0.2 nM, respectively.

On to `N#C[C@@H]1CC(F)(F)CN1C(=O)CNC(=O)c1ccnc2c(OCCCNC(=O)C3CCC(CNC(=O)CN4CCN(CC(=O)O)CCN(CC(=O)O)CCN(CC(=O)O)CC4)CC3)cccc12` (stereo partly drawn) [eFAP-9, 2,2′,2″-(10-(2-(((4-((3-((4-((2-((S)-2-Cyano-4,4-difluoropyrrolidin-1-yl)-2-oxoethyl)carbamoyl)quinolin-8-yl)oxy)propyl)carbamoyl)cyclohexyl)methyl)amino)-2-oxoethyl)-1,4,7,10-tetraazacyclododecane-1,4,7-triyl)triacetic acid], for which the IC50 against mouse FAP (mFAP) turned out to be 2.3 ± 0.3 nM; at human FAP (hFAP), 2.9 ± 0.6 nM.

For the molecule `N#C[C@@H]1CC(F)(F)CN1C(=O)CNC(=O)c1ccnc2c(OCCCNC(=O)CN3CCC(NC(=O)CN4CCN(CC(=O)O)CCN(CC(=O)O)CCN(CC(=O)O)CC4)CC3)cccc12` [eFAP-10, (S)-2,2′,2″-(10-(2-((1-(2-((3-((4-((2-(2-Cyano-4,4-difluoropyrrolidin-1-yl)-2-oxoethyl)carbamoyl)quinolin-8-yl)oxy)propyl)amino)-2-oxoethyl)piperidin-4-yl)amino)-2-oxoethyl)-1,4,7,10-tetraazacyclododecane-1,4,7-triyl)triacetic acid], the IC50 against mouse FAP (mFAP) and against human FAP (hFAP) was 2.4 ± 0.7 nM throughout.

For the molecule `N#C[C@@H]1CC(F)(F)CN1C(=O)CNC(=O)c1ccnc2c(OCCCNC(=O)COCC(=O)Nc3ccc(CNC(=O)CN4CCN(CC(=O)O)CCN(CC(=O)O)CCN(CC(=O)O)CC4)cc3)cccc12` [eFAP-11, (S)-2,2′,2″-(10-(2-((4-(2-(2-((3-((4-((2-(2-Cyano-4,4-difluoropyrrolidin-1-yl)-2-oxoethyl)carbamoyl)quinolin-8-yl)oxy)propyl)amino)-2-oxoethoxy)acetamido)benzyl)amino)-2-oxoethyl)-1,4,7,10-tetraazacyclododecane-1,4,7-triyl)triacetic acid], the midpoint of inhibition against mouse FAP (mFAP), the IC50, lay at 1.5 ± 0.2 nM.

`N#C[C@@H]1CC(F)(F)CN1C(=O)CNC(=O)c1ccnc2c(OCCCNC(=O)CN3CCN(C(=O)CN4CCN(CC(=O)O)CCN(CC(=O)O)CCN(CC(=O)O)CC4)CC3)cccc12` [eFAP-12, (S)-2,2′,2″-(10-(2-(4-(2-((3-((4-((2-(2-Cyano-4,4-difluoropyrrolidin-1-yl)-2-oxoethyl)carbamoyl)quinolin-8-yl)oxy)propyl)amino)-2-oxoethyl)piperazin-1-yl)-2-oxoethyl)-1,4,7,10-tetraazacyclododecane-1,4,7-triyl)triacetic acid] gave an IC50 against mouse FAP (mFAP) of 1.8 ± 0.2 nM.

On mouse FAP (mFAP), `N#C[C@@H]1CC(F)(F)CN1C(=O)CNC(=O)c1ccnc2c(OCCCNC(=O)CN3CCN(CCNC(=O)CN4CCN(CC(=O)O)CCN(CC(=O)O)CCN(CC(=O)O)CC4)CC3)cccc12` [eFAP-13, (S)-2,2′,2″-(10-(2-((2-(4-(2-((3-((4-((2-(2-Cyano-4,4-difluoropyrrolidin-1-yl)-2-oxoethyl)carbamoyl)quinolin-8-yl)oxy)propyl)amino)-2-oxoethyl)piperazin-1-yl)ethyl)amino)-2-oxoethyl)-1,4,7,10-tetraazacyclododecane-1,4,7-triyl)triacetic acid] had a concentration for half-maximal inhibition (IC50) of 1.3 ± 0.6 nM.

As to `N#C[C@@H]1CC(F)(F)CN1C(=O)CNC(=O)c1ccnc2c(OCCCNC(=O)CCSc3nnc(SCCC(=O)NCCCOc4cccc5c(C(=O)NCC(=O)N6CC(F)(F)C[C@H]6C#N)ccnc45)c4c3CCCC(OC(=O)NCCCNC(=O)CCC(C(=O)O)N3CCN(CC(=O)O)CCN(CC(=O)O)CCN(CC(=O)O)CC3)CC4)cccc12` (stereo partly drawn) [eFAP-20, 2,2′,2″-(10-(4-((3-((((1,4-bis((3-((3-((4-((2-((S)-2-cyano-4,4-difluoropyrrolidin-1-yl)-2-oxoethyl)carbamoyl)quinolin-8-yl)oxy)propyl)amino)-3-oxopropyl)thio)-5,6,7,8,9,10-hexahydrocycloocta[d]pyridazin-7-yl)oxy)carbonyl)amino)propyl)amino)-1-carboxy-4-oxobutyl)-1,4,7,10-tetraazacyclododecane-1,4,7-triyl)triacetic acid], the values for the IC50 against mouse FAP (mFAP) and against human FAP (hFAP) were 1.11 nM and 1.15 nM, respectively.

`N#C[C@@H]1CC(F)(F)CN1C(=O)CNC(=O)c1ccnc2c(OCCCNC(=O)CC(O)CNC(=O)CC(O)CNC(=S)Nc3ccc4c(c3)C(=O)OC43c4ccc(O)cc4Oc4cc(O)ccc43)cccc12` (stereo partly drawn) [eFAP-23, N-(2-((S)-2-cyano-4,4-difluoropyrrolidin-1-yl)-2-oxoethyl)-8-(3-(4-(4-(3-(3′,6′-dihydroxy-3-oxo-3H-spiro[isobenzofuran-1,9′-xanthen]-5-yl)thioureido)-3-hydroxybutanamido)-3-hydroxybutanamido)propoxy)quinoline-4-carboxamide] registered a concentration for half-maximal inhibition (IC50) on mouse FAP (mFAP) of 2 ± 0.4 nM.

On to `N#C[C@@H]1CC(F)(F)CN1C(=O)CNC(=O)c1ccnc2c(OCCCNC(=O)CCSCC(=O)N3CN(C(=O)CSCCC(=O)NCCCOc4cccc5c(C(=O)NCC(=O)N6CC(F)(F)C[C@H]6C#N)ccnc45)CN(C(=O)Cn4nnc5c4CC[C@H]4[C@@H](CC5)[C@H]4COC(=O)NCCNC(=O)CCC(C(=O)O)N4CCN(CC(=O)O)CCN(CC(=O)O)CCN(CC(=O)O)CC4)C3)cccc12` (some centres unmarked) [eFAP-34], for which the midpoint of inhibition on human FAP (hFAP), the IC50, lay at 1.8 nM.

On to `N#C[C@@H]1CC(F)(F)CN1C(=O)CNC(=O)c1ccnc2c(OCCCNC(=O)CCCCCSCC(=O)N3CN(C(=O)CSCCCCCC(=O)NCCCOc4cccc5c(C(=O)NCC(=O)N6CC(F)(F)C[C@H]6C#N)ccnc45)CN(C(=O)Cn4nnc5c4CC[C@@H]4[C@H](CC5)[C@@H]4COC(=O)NCCNC(=O)CCC(C(=O)O)N4CCN(CC(=O)O)CCN(CC(=O)O)CCN(CC(=O)O)CC4)C3)cccc12` (some centres unmarked) [eFAP-35], for which inhibition at human FAP (hFAP) was half-maximal at 1.7 nM (IC50).

With `N#C[C@@H]1CC(F)(F)CN1C(=O)CNC(=O)c1ccnc2c(OCCCNC(=O)CCOCCOCCNCC(=O)N3CN(C(=O)CNCCOCCOCCC(=O)NCCCOc4cccc5c(C(=O)NCC(=O)N6CC(F)(F)C[C@H]6C#N)ccnc45)CN(C(=O)Cn4nnc5c4CC[C@H]4[C@@H](CC5)[C@H]4COC(=O)NCCNC(=O)CCC(C(=O)O)N4CCN(CC(=O)O)CCN(CC(=O)O)CCN(CC(=O)O)CC4)C3)cccc12` (some centres unmarked) [eFAP-36], on human FAP (hFAP), the concentration for half-maximal inhibition (IC50) was 0.35 nM.

Take `N#C[C@@H]1CC(F)(F)CN1C(=O)CNC(=O)c1ccnc2c(OCCCNC(=O)CCOCCOCCNc3nc(NCCCn4nnc5c4CC[C@H]4[C@@H](CC5)[C@H]4COC(=O)NCCNC(=O)CCC(C(=O)O)N4CCN(CC(=O)O)CCN(CC(=O)O)CCN(CC(=O)O)CC4)nc(NCCOCCOCCC(=O)NCCCOc4cccc5c(C(=O)NCC(=O)N6CC(F)(F)C[C@H]6C#N)ccnc45)n3)cccc12` (some centres unmarked) [eFAP-37]: on mouse FAP (mFAP), inhibition was half-maximal at 0.8 ± 0.1 nM (IC50).
